US6395740B1, “Calcitonin mimetics” (ZymoGenetics, Inc., priority 1997, dated 2002)
≈ marks a conversion by molar mass, not a printed value.

Legend:
[1] = test system: PTH-induced bone resorption in mouse calvariae; assay: Calvarial assay: inhibition of PTH-induced bone resorption (calcium release); assay type: cell-based; conditions: 1 nM PTH 1-34, 72 hours, read-out: Release of PTH Induced Ca++ IC50
Description: Calvaria from 4-day old neonatal CD-1 mice (pregnant mice received from Charles River Laboratories, Wilmington, Mass.) were trimmed with fine-tipped scissors to leave the parietal regions, including the sagittal suture. These trimmed bones were placed singly per well into 6-well cell culture cluster plates (Costar, Pleasanton, Calif.) with 1 mL/well of growth medium (DMEM, BioWhittaker, Walkersville, Md.) with 4.5 g/L glucose, 0.29 mg/mL L-glutamine, 1 mM sodium pyruvate, 15% heat-inactivated horse serum, and antibiotics (penicillin-G 50 μg/mL, streptomycin 50 μg/mL, and neomycin 100 μg/mL), and rocked gently (RedRocker™, model PR50-115V, Hoefer, San Francisco, Calif.) at 37° C. in a 5% CO2 humidified incubator for 24 hours preincubation.
Following preincubation, medium was removed and replaced with 1.5 mL/well of growth medium containing 1 nM parathyroid hormone (PTH) 1-34 (Sigma) to stimulate bone resorption. For evaluation of the ability of calcitonin mimetics to inhibit PTH induced bone resorption, mimetic compounds in DMSO were added to the growth medium at concentrations ranging from 1-400 μg/mL (final assay concentration of DMSO less than or equal to […]). In each exierimerec human calcitonin (0.02-20 nM, 0.2-2 nM preferred) was added to PTH treated bones as a positive control. […] All control wells contained a final assay concentration of DMSO equal to that present in calcitonin mimetic treated wells.
Five bones were included in each sample group. Bones were incubated for 72 hours following PTH addition to allow resorption of bone to occur. Observations were made of the general appearance, healthiness and number of cells that migrate from the calvaria during the incubation as a possible indication of possible toxicity. Calvaria to be examined histologically were transferred to glass scintillation vials containing 10 mL of 10% neutral buffered formalin. The medium was removed from the wells, and total calcium measurements were made using a Nova 7/7+7 Electrolyte Analyzer (Nova Biomedical, Waltham, Mass.) according to the manufacturer's specifications. Induction of bone resorption by PTH is seen as an increase in the concentration of calcium in the growth medium due to degradation of the bone matrix.

[2] = test system: PTH-induced bone resorption in mouse calvaria; assay: Calvarial assay to determine calcitonin escape; assay type: cell-based
Description: Calvaria from 4-day old neonatal CD-1 mice (pregnant mice received from Charles River Laboratories) were trimmed with fine-tipped scissors to leave the parietal regions, including the sagittal suture. These trimmed bones were placed singly per well into 6-well culture cluster plates (Costar) with 1 mL/well of growth medium, Basel Medium (Eagle's with Earle's salts (GIBCO BRL, Gaithersburg, Md.)) containing 4.5 g/L glucose, 0.29 mg/mL L-glutamine, 1 mM sodium pyruvate, 15% heat-inactivated horse serum, antibiotics (penicillin-G 50 μg/mL, streptomycin 50 μg/mL, and neomycin 100 μg/mL) and containing 5 nM parathyroid hormone (PTH) 1-34 (Sigma), and rocked gently (RedRocker™) at 37° C. in a 5% CO2 humidified incubator for 17.5 hours preincubation. The concentration of PTH was chosen to insure maximum resorption. Calvaria designated as controls were pre-incubated in media without PTH.
Following preincubation, medium was removed and replaced with 1 mL/well of growth medium, as above, containing 20 or 30 μg/mL of the calcitonin mimetic 850-0231 in DMSO (final assay concentration of DMSO less than or equal to 1%), and compared with human calcitonin (hCT) tested at 0.5, 1.0, 5.0, […] All control wells contained a final assay concentration of DMSO equal to that present in the calcitonin mimetic treated wells.
Five bones were included in each sample group. Bones were incubated for a total of 98 hours. Time points were taken at 4, 8, 11, 24, 50.5, 72.5 and 98 hours. At each time point the media containing PTH was removed and fresh dilutions of compound in media were added to the calvaria. After the media was removed, total calcium measurements were made using a Nova 7/7+7 Electrolyte Analyzed (Nova Biomedical) according to the manufacturer's specifications. Induction of bone resorption by PTH is seen as an increase in the concentration of calcium in the growth medium due to degradation of the bone matrix.
A second calvaria bone resorption/escape assay was performed as described above with time points at 4, 8, 12, 16, 24, 49 and 73 hours. […] Histology was done on the PTH-treated and the 30 μg/mL calcitonin mimetic-treated calvaria.
A third calvaria bone resorption/escape assay was performed as described above with the following modifications. The calcitonin mimetic was tested at 5, 10 and 20 μg/mL. PTH was used at 10 nM to insure maximal resorption, hCT was tested at 2 nM and 8 nM and sCT was not included. Calvaria were pretreated with PTH for 19.75 hours. BrdU (bromodeoxyuridine, final concentration 10 μM) was added to the growth media for the final 17.5 hours, to identify proliferating cells. The lack of toxicity of 850-0231 will be verified by quartitating the number of proliferating BudU cells in histological sections of the calvaria. Time points were taken at 4, 8, 11, 24.5, 48 and 77 hours. A Novo CRT 10+ electrolyte analyzer (Nova Biomedical) was used to analyze the time point samples.
At the final time point, visual observations were made and photos taken to note the extent of resorption, and migration from the calvarial cells as a measure of toxicity. Again, human calcitonin lost its inhibitory effect between hours 11 and 24 (Table 5). The calvaria treated with the mimetic at 5 and 10 μg/mL also lost inhibitory effect between 11 and 24 hours.

## COc1cc(CN2CCN(C(=O)Nc3cccc(C(F)(F)F)c3)CC2)ccc1O [Compound 850-0231]
[1]
  IC50: 25 to 50 µg/mL (≈ 61.1 to 122 µM)
[2]; first assay, PTH 5 nM, 30 μg/mL
  escape / continued inhibition of resorption: did not undergo this escape and continued to inhibit resorption throughout the 98th, hour
[2]; first assay, PTH 5 nM, 850-0231 30 μg/mL, 4 hours
  Cumulative Total Calcium: 0.16 mg %
[2]; first assay, PTH 5 nM, 850-0231 30 μg/mL, 8 hours
  Cumulative Total Calcium: 0.28 mg %
[2]; first assay, PTH 5 nM, 850-0231 30 μg/mL, 11 hours
  Cumulative Total Calcium: 0.36 mg %
[2]; first assay, PTH 5 nM, 850-0231 30 μg/mL, 24 hours
  Cumulative Total Calcium: 0.48 mg %
[2]; first assay, PTH 5 nM, 850-0231 30 μg/mL, 50.5 hours
  Cumulative Total Calcium: 0.32 mg %
[2]; first assay, PTH 5 nM, 850-0231 30 μg/mL, 72.5 hours
  Cumulative Total Calcium: 0.12 mg %
[2]; first assay, PTH 5 nM, 850-0231 30 μg/mL, 98 hours
  Cumulative Total Calcium: −0.18 mg %
[2]; first assay, final time point
  toxicity judged by number of cells migrated from calvaria: not toxic to the cells
[2]; first assay, final time point (98 hours)
  visual observation of the calvaria (resorption): almost identical in appearance to the untreated calavaria
[2]; second assay, 30 μg/mL
  histology of treated calvaria (integrity, toxicity): intact and showed minimal signs of toxicity
[2]; second assay, PTH 5 nM
  continued inhibition of resorption: able to continue inhibition of resorption throughout the 73rd hour
[2]; second assay, PTH 5 nM, 850-0231 30 μg/mL, 4 hours
  Cumulative Total Calcium: 0.40 mg %
[2]; second assay, PTH 5 nM, 850-0231 30 μg/mL, 8 hours
  Cumulative Total Calcium: 0.70 mg %
[2]; second assay, PTH 5 nM, 850-0231 30 μg/mL, 12 hours
  Cumulative Total Calcium: 0.88 mg %
[2]; second assay, PTH 5 nM, 850-0231 30 μg/mL, 16 hours
  Cumulative Total Calcium: 1.14 mg %
[2]; second assay, PTH 5 nM, 850-0231 30 μg/mL, 24 hours
  Cumulative Total Calcium: 1.04 mg %
[2]; second assay, PTH 5 nM, 850-0231 30 μg/mL, 49 hours
  Cumulative Total Calcium: 0.86 mg %
[2]; second assay, PTH 5 nM, 850-0231 30 μg/mL, 73 hours
  Cumulative Total Calcium: 0.56 mg %
[2]; third assay, PTH 10 nM, 20 μg/mL
  inhibition of resorption: significantly inhibited at all time points
[2]; third assay, PTH 10 nM, 850-0231 5 μg/mL, 4 hours
  Cumulative Total Calcium: 0.47 mg %
[2]; third assay, PTH 10 nM, 850-0231 5 μg/mL, 8 hours
  Cumulative Total Calcium: 1.08 mg %
[2]; third assay, PTH 10 nM, 850-0231 5 μg/mL, 11 hours
  Cumulative Total Calcium: 1.49 mg %
[2]; third assay, PTH 10 nM, 850-0231 5 μg/mL, 24.5 hours
  Cumulative Total Calcium: 3.73 mg %
[2]; third assay, PTH 10 nM, 850-0231 5 μg/mL, 48 hours
  Cumulative Total Calcium: 7.54 mg %
[2]; third assay, PTH 10 nM, 850-0231 5 μg/mL, 77 hours
  Cumulative Total Calcium: 11.83 mg %
[2]; third assay, PTH 10 nM, 850-0231 10 μg/mL, 4 hours
  Cumulative Total Calcium: 0.41 mg %
[2]; third assay, PTH 10 nM, 850-0231 10 μg/mL, 8 hours
  Cumulative Total Calcium: 0.87 mg %
[2]; third assay, PTH 10 nM, 850-0231 10 μg/mL, 11 hours
  Cumulative Total Calcium: 1.30 mg %
[2]; third assay, PTH 10 nM, 850-0231 10 μg/mL, 24.5 hours
  Cumulative Total Calcium: 3.05 mg %
[2]; third assay, PTH 10 nM, 850-0231 10 μg/mL, 48 hours
  Cumulative Total Calcium: 5.96 mg %
[2]; third assay, PTH 10 nM, 850-0231 10 μg/mL, 77 hours
  Cumulative Total Calcium: 8.87 mg %
[2]; third assay, PTH 10 nM, 850-0231 20 μg/mL, 4 hours
  Cumulative Total Calcium: 0.35 mg %
[2]; third assay, PTH 10 nM, 850-0231 20 μg/mL, 8 hours
  Cumulative Total Calcium: 0.70 mg %
[2]; third assay, PTH 10 nM, 850-0231 20 μg/mL, 11 hours
  Cumulative Total Calcium: 0.94 mg %
[2]; third assay, PTH 10 nM, 850-0231 20 μg/mL, 24.5 hours
  Cumulative Total Calcium: 2.23 mg %
[2]; third assay, PTH 10 nM, 850-0231 20 μg/mL, 48 hours
  Cumulative Total Calcium: 3.20 mg %
[2]; third assay, PTH 10 nM, 850-0231 20 μg/mL, 77 hours
  Cumulative Total Calcium: 3.78 mg %
